In patent US11420973B2, “Amide substituted indole compounds useful as TLR inhibitors” (BRISTOL-MYERS SQUIBB COMPANY, priority 2017, dated 2022):
Counter-ions that a name gives are not always drawn. Like-named read-outs stand apart in the source and are kept apart here.

How the values were obtained:
[1] = molecular target: human TLR7 (Homo sapiens (Human), UniProt Q9NYK1); assay: TLR7 inhibition reporter assay (HEK-Blue SEAP reporter, gardiquimod stimulation); assay type: cell-based; details: HEK-Blue cells overexpressing human TLR7, gardiquimod 7.5 μM
[2] = molecular target: human TLR8 (Homo sapiens (Human), UniProt Q9NR97); assay: TLR8 inhibition reporter assay (HEK-Blue SEAP reporter, R848 stimulation);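 also: SEAP driven by IFN-β minimal promoter with NF-κB and AP-1 sites, 22 h incubation, compounds 0.05 nM–50 µM, inhibition scaled between agonist plus DMSO and reference inhibitor wells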
[3] = molecular target: human TLR9 (Homo sapiens (Human), UniProt Q9NR96); assay: TLR9 inhibition reporter assay (HEK-Blue SEAP reporter, ODN2006 stimulation);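 also: SEAP reporter under IFN-β minimal promoter with five NF-κB and AP-1 sites, 22 h incubation, compounds 0.05 nM–50 µM, inhibition relative to agonist plus DMSO versus known inhibitor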
[4] = read-out: TLR8 IC50, HEK-Blue cells overexpressing human TLR8, R848 15.9 μM, SEAP reporter
[5] = read-out: TLR9 IC50, HEK-Blue cells overexpressing human TLR9, ODN2006 5 nM, SEAP reporter

human TLR7, sequence (Q9NYK1 27-1049): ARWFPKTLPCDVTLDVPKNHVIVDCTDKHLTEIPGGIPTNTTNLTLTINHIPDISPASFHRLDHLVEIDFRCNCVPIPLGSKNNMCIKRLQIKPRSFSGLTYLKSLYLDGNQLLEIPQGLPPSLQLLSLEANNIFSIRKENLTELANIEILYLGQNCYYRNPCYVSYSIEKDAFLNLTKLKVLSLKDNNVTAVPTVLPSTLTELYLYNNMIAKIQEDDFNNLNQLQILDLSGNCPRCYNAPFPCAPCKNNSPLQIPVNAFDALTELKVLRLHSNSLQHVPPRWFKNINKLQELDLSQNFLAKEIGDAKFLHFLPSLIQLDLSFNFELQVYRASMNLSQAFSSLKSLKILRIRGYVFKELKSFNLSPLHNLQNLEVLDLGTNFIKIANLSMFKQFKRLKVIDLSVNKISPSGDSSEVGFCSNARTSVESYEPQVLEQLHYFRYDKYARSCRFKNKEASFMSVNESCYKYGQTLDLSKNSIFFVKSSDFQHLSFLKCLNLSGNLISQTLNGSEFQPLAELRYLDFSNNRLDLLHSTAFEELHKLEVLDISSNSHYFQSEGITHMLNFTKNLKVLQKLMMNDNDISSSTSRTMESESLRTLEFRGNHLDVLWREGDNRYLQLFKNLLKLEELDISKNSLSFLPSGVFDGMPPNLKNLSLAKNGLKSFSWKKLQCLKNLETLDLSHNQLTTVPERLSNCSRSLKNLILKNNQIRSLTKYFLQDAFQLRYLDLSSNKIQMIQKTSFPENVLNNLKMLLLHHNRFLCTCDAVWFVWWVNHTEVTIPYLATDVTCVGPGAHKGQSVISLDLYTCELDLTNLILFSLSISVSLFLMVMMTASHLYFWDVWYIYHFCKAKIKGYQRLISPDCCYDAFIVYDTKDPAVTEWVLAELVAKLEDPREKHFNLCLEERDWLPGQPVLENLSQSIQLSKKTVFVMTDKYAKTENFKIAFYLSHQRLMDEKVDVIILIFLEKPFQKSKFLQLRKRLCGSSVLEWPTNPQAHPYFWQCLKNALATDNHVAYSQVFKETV
human TLR9, sequence (Q9NR96 26-1032): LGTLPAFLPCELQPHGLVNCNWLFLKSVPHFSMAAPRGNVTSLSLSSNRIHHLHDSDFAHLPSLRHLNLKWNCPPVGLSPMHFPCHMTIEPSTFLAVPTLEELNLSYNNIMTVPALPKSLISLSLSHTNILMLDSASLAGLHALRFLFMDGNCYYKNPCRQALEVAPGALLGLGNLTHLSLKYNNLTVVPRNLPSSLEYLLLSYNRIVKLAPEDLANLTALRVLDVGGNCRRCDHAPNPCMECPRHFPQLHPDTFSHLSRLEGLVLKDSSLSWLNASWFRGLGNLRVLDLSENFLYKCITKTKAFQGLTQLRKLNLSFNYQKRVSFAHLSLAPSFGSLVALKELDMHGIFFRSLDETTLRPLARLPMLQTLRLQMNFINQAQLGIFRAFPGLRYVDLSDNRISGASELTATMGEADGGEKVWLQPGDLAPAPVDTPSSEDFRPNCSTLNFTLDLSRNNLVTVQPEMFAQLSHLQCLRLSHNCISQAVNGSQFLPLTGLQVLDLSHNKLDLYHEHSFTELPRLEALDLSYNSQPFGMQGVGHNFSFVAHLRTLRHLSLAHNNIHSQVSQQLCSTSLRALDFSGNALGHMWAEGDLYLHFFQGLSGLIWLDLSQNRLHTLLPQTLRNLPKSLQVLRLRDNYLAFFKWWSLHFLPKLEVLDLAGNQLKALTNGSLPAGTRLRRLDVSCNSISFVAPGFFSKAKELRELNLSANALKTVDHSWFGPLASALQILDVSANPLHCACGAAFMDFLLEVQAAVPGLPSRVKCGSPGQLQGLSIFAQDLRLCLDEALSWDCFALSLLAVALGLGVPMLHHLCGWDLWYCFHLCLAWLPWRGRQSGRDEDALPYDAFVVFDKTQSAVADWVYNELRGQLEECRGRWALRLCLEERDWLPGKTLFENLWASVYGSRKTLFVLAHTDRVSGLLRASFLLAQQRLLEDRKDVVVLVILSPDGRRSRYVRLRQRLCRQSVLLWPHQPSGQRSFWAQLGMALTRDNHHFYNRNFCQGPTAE
human TLR8, sequence (Q9NR97 27-1041): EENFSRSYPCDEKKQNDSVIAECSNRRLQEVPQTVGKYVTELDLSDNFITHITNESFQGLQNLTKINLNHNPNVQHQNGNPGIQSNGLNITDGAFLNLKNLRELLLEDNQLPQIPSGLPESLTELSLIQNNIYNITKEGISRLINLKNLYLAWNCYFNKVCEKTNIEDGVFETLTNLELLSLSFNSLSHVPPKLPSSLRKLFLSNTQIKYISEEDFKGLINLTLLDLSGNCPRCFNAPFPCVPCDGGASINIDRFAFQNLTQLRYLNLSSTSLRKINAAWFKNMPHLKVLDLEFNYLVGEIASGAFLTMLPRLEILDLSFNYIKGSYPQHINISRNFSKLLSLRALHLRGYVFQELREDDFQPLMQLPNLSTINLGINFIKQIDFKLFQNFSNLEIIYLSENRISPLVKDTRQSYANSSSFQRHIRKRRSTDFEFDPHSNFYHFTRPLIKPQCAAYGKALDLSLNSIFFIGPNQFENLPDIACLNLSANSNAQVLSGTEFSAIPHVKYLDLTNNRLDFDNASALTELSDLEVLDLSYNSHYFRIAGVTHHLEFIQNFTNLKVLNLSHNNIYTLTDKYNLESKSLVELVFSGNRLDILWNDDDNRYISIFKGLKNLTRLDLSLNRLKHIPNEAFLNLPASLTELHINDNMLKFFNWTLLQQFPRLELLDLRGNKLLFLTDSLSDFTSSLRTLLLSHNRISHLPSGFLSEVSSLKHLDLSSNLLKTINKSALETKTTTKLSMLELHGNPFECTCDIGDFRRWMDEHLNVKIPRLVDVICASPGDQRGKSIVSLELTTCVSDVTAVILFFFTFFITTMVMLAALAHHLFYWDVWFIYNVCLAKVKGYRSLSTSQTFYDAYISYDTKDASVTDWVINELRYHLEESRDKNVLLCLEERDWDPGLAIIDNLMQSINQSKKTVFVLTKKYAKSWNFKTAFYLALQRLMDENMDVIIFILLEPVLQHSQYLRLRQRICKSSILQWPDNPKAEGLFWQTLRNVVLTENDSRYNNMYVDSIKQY

Compound | IC50 [1] | IC50 [2, 4] | IC50 [3, 5] | IC50 [2] | IC50 [3]
Cc1cc(-c2[nH]c3ccc(C(=O)N(C)Cc4ccccc4)cc3c2C(C)C)cc(C)n1 [Example 99, N-benzyl-2-(2,6-dimethylpyridin-4-yl)-3-isopropyl-N-methyl-1H-indole-5-carboxamide] | 201 nM | 481 nM | 1830 nM | – | –
Cc1cc(-c2[nH]c3ccc(C(=O)N(C)Cc4cccnc4)cc3c2C(C)C)cc(C)n1 [Example 100, 2-(2,6-dimethylpyridin-4-yl)-3-isopropyl-N-methyl-N-(pyridin-3-ylmethyl)-1H-indole-5-carboxamide] | 46 nM | 320 nM | > 50000 nM | – | –
Cc1cc(-c2[nH]c3ccc(C(=O)N(C)C4CCN(C)CC4)cc3c2C(C)C)cc(C)n1 [Example 101, 2-(2,6-dimethylpyridin-4-yl)-3-isopropyl-N-methyl-N-(1-methylpiperidin-4-yl)-1H-indole-5-carboxamide] | 1.9 nM | 0.34 nM | 776 nM | – | –
Cc1cc(-c2[nH]c3ccc(C(=O)N(C)CCc4ccccc4)cc3c2C(C)C)cc(C)n1 [Example 102, 2-(2,6-dimethylpyridin-4-yl)-3-isopropyl-N-methyl-N-phenethyl-1H-indole-5-carboxamide] | 185 nM | 418 nM | 5060 nM | – | –
Cc1cc(-c2[nH]c3ccc(C(=O)N(C)Cc4cccc(N)c4)cc3c2C(C)C)cc(C)n1 [Example 103, N-(3-aminobenzyl)-2-(2,6-dimethylpyridin-4-yl)-3-isopropyl-N-methyl-1H-indole-5-carboxamide] | 54 nM | 192 nM | 27100 nM | – | –
Cc1cc(-c2[nH]c3ccc(C(=O)N4CCC(N(C)C)CC4)cc3c2C(C)C)cc(C)n1 [Example 104, (4-(dimethylamino)piperidin-1-yl)(2-(2,6-dimethylpyridin-4-yl)-3-isopropyl-1H-indol-5-yl)methanone] | 14 nM | 12 nM | 373 nM | – | –
Cc1cc(-c2[nH]c3ccc(C(=O)N(C)CCO)cc3c2C(C)C)cc(C)n1 [Example 105, 2-(2,6-dimethylpyridin-4-yl)-N-(2-hydroxyethyl)-3-isopropyl-N-methyl-1H-indole-5-carboxamide] | 33 nM | 59 nM | 20800 nM | – | –
COCCN(C)C(=O)c1ccc2[nH]c(-c3cc(C)nc(C)c3)c(C(C)C)c2c1 [Example 106, 2-(2,6-dimethylpyridin-4-yl)-3-isopropyl-N-(2-methoxyethyl)-N-methyl-1H-indole-5-carboxamide] | 51 nM | 105 nM | > 50000 nM | – | –
Cc1cc(-c2[nH]c3ccc(C(=O)N4CC5CNCC5C4)cc3c2C(C)C)cc(C)n1 (stereo not drawn) [Example 107, (2-(2,6-dimethylpyridin-4-yl)-3-isopropyl-1H-indol-5-yl)(hexahydropyrrolo[3,4-c]pyrrol-2(1H)-yl)methanone, 2 HCl] | 73 nM | – | – | 58 nM | 264 nM
Cc1cc(-c2[nH]c3ccc(C(=O)N4CCNCC4)cc3c2C(C)C)cc(C)n1 [Example 108, (2-(2,6-dimethylpyridin-4-yl)-3-isopropyl-1H-indol-5-yl)(piperazin-1-yl)methanone] | 7.3 nM | 1.5 nM | 247 nM | – | –
Cc1cc(-c2[nH]c3ccc(C(=O)N4CC5CN(C)CC5C4)cc3c2C(C)C)cc(C)n1 (stereo not drawn) [Example 109, (2-(2,6-dimethylpyridin-4-yl)-3-isopropyl-1H-indol-5-yl)(5-methylhexahydropyrrolo[3,4-c]pyrrol-2(1H)-yl)methanone] | 18 nM | 2.3 nM | 116 nM | – | –
Cc1cc(-c2[nH]c3ccc(C(=O)N4CC5CN(C(C)C)CC5C4)cc3c2C(C)C)cc(C)n1 (stereo not drawn) [Example 110, (2-(2,6-dimethylpyridin-4-yl)-3-isopropyl-1H-indol-5-yl)(5-isopropylhexahydropyrrolo[3,4-c]pyrrol-2(1H)-yl)methanone] | 49 nM | 11 nM | 410 nM | – | –
Cc1cc(-c2[nH]c3ccc(C(=O)N4CC5CN(C(=O)CN(C)C)CC5C4)cc3c2C(C)C)cc(C)n1 (stereo not drawn) [Example 111, 2-(dimethylamino)-1-(5-(2-(2,6-dimethylpyridin-4-yl)-3-isopropyl-1H-indole-5-carbonyl)hexahydropyrrolo[3,4-c]pyrrol-2(1H)-yl)ethanone] | 171 nM | 74 nM | 668 nM | – | –
Cc1cc(-c2[nH]c3ccc(C(=O)N4CC5CNCC5C4)cc3c2C(C)C)ccn1 (stereo not drawn) [Example 112, (hexahydropyrrolo[3,4-c]pyrrol-2(1H)-yl)(3-isopropyl-2-(2-methylpyridin-4-yl)-1H-indol-5-yl)methanone, HCl] | 335 nM | – | – | 36 nM | 334 nM
Cc1cc(-c2[nH]c3ccc(C(=O)NC4CCN(C(C)C)CC4)cc3c2C(C)C)ccn1 [Example 113, 3-isopropyl-N-(1-isopropylpiperidin-4-yl)-2-(2-methylpyridin-4-yl)-1H-indole-5-carboxamide] | 50 nM | 0.8 nM | 1270 nM | – | –
Cc1cc(-c2[nH]c3ccc(C(=O)N4CCCN(C)CC4)cc3c2C(C)C)ccn1 [Example 114, (3-isopropyl-2-(2-methylpyridin-4-yl)-1H-indol-5-yl)(4-methyl-1,4-diazepan-1-yl)methanone] | 135 nM | 2.4 nM | 3630 nM | – | –
Cc1cc(-c2[nH]c3ccc(C(=O)N4CC5CN(C)CC5C4)cc3c2C(C)C)ccn1 (stereo not drawn) [Example 115, (3-isopropyl-2-(2-methylpyridin-4-yl)-1H-indol-5-yl)(5-methylhexahydropyrrolo[3,4-c]pyrrol-2(1H)-yl)methanone] | 147 nM | 3.5 nM | 1580 nM | – | –
Cc1cc(-c2[nH]c3ccc(C(=O)N4CC5CN(C(C)C)CC5C4)cc3c2C(C)C)ccn1 (stereo not drawn) [Example 116, (3-isopropyl-2-(2-methylpyridin-4-yl)-1H-indol-5-yl)(5-isopropylhexahydropyrrolo[3,4-c]pyrrol-2(1H)-yl)methanone] | 117 nM | 3.6 nM | 985 nM | – | –
Cc1cc(-c2[nH]c3ccc(C(=O)N4CC5CN(CC(=O)N(C)C)CC5C4)cc3c2C(C)C)ccn1 (stereo not drawn) [Example 117, 2-(5-(3-isopropyl-2-(2-methylpyridin-4-yl)-1H-indole-5-carbonyl)hexahydropyrrolo[3,4-c]pyrrol-2(1H)-yl)-N,N-dimethylacetamide] | 730 nM | 20 nM | 3700 nM | – | –
CNC(=O)CN1CC2CN(C(=O)c3ccc4[nH]c(-c5ccnc(C)c5)c(C(C)C)c4c3)CC2C1 (stereo not drawn) [Example 118, 2-(5-(3-isopropyl-2-(2-methylpyridin-4-yl)-1H-indole-5-carbonyl)hexahydropyrrolo[3,4-c]pyrrol-2(1H)-yl)-N-methylacetamide] | 4050 nM | 165 nM | 22700 nM | – | –
CNCC(=O)N1CC2CN(C(=O)c3ccc4[nH]c(-c5ccnc(C)c5)c(C(C)C)c4c3)CC2C1 (stereo not drawn) [Example 119, 1-(5-(3-isopropyl-2-(2-methylpyridin-4-yl)-1H-indole-5-carbonyl)hexahydropyrrolo[3,4-c]pyrrol-2(1H)-yl)-2-(methylamino)ethanone] | 2610 nM | 226 nM | 2230 nM | – | –
Cc1cc(-c2[nH]c3ccc(C(=O)N4CC5CN(C(=O)CN(C)C)CC5C4)cc3c2C(C)C)ccn1 (stereo not drawn) [Example 120, 2-(dimethylamino)-1-(5-(3-isopropyl-2-(2-methylpyridin-4-yl)-1H-indole-5-carbonyl)hexahydropyrrolo[3,4-c]pyrrol-2(1H)-yl)ethan-1-one] | 870 nM | 47 nM | 752 nM | – | –
CC(C)c1c(-c2ccnc3[nH]ncc23)[nH]c2ccc(C(=O)N3CC4CNCC4C3)cc12 (stereo not drawn) [Example 121, (hexahydropyrrolo[3,4-c]pyrrol-2(1H)-yl)(3-isopropyl-2-(1H-pyrazolo[3,4-b]pyridin-4-yl)-1H-indol-5-yl)methanone, HCl] | 1600 nM | 122 nM | 3330 nM | – | –
Cc1cc(-c2[nH]c3ccc(C(=O)N4CC5CNCC5C4)cc3c2CC(F)F)cc(C)n1 (stereo not drawn) [Example 122, (3-(2,2-difluoroethyl)-2-(2,6-dimethylpyridin-4-yl)-1H-indol-5-yl)(hexahydropyrrolo [3,4-c]pyrrol-2(1H)-yl)methanone] | 2260 nM | 5650 nM | 1460 nM | – | –
Cc1cc(-c2[nH]c3ccc(C(=O)NC4CCN(C(C)C)CC4)cc3c2CC(F)F)cc(C)n1 [Example 123, 3-(2,2-difluoroethyl)-2-(2,6-dimethylpyridin-4-yl)-N-(1-isopropylpiperidin-4-yl)-1H-indole-5-carboxamide] | 83 nM | 75 nM | 231 nM | – | –
Cc1cc(-c2[nH]c3ccc(C(=O)N4CCCN(C)CC4)cc3c2CC(F)F)cc(C)n1 [Example 124, (3-(2,2-difluoroethyl)-2-(2,6-dimethylpyridin-4-yl)-1H-indol-5-yl)(4-methyl-1,4-diazepan-1-yl)methanone] | 128 nM | 36 nM | 1120 nM | – | –
CCN(CCN(C)C)C(=O)c1ccc2[nH]c(-c3cc(C)nc(C)c3)c(CC(F)F)c2c1 [Example 125, 3-(2,2-difluoroethyl)-N-(2-(dimethylamino)ethyl)-2-(2,6-dimethylpyridin-4-yl)-N-ethyl-1H-indole-5-carboxamide] | 19 nM | 23 nM | 727 nM | – | –
COc1cc(-c2[nH]c3ccc(C(=O)N4CC5CNCC5C4)cc3c2C(C)C)cn2ncnc12 (stereo not drawn) [Example 126, (hexahydropyrrolo[3,4-c]pyrrol-2(1H)-yl)(3-isopropyl-2-(8-methoxy-[1,2,4]triazolo[1,5-a]pyridin-6-yl)-1H-indol-5-yl)methanone] | 29 nM | 233 nM | 2410 nM | – | –
